5 substances from publication PMC6056499, “A systematic dissection of sequence elements determining β-Klotho and FGF interaction and signaling” (Scientific Reports, 2018) can be followed below.

Broadly, the IC50 is the concentration at which inhibition is half-maximal. What is called EC50 is the concentration needed to bring the measured effect to its halfway point.

Read-outs that look alike come from different tables or passages of the source. No end group written: not given here.

In test [1] the target is T1, β-Klotho (Homo sapiens, UniProt Q86Z14).
T1 construct: the ECD of human β-Klotho (aa1–992) fused with a 6 × His tag at the C-terminus; made in house
T1 sequence (Q86Z14 1-992): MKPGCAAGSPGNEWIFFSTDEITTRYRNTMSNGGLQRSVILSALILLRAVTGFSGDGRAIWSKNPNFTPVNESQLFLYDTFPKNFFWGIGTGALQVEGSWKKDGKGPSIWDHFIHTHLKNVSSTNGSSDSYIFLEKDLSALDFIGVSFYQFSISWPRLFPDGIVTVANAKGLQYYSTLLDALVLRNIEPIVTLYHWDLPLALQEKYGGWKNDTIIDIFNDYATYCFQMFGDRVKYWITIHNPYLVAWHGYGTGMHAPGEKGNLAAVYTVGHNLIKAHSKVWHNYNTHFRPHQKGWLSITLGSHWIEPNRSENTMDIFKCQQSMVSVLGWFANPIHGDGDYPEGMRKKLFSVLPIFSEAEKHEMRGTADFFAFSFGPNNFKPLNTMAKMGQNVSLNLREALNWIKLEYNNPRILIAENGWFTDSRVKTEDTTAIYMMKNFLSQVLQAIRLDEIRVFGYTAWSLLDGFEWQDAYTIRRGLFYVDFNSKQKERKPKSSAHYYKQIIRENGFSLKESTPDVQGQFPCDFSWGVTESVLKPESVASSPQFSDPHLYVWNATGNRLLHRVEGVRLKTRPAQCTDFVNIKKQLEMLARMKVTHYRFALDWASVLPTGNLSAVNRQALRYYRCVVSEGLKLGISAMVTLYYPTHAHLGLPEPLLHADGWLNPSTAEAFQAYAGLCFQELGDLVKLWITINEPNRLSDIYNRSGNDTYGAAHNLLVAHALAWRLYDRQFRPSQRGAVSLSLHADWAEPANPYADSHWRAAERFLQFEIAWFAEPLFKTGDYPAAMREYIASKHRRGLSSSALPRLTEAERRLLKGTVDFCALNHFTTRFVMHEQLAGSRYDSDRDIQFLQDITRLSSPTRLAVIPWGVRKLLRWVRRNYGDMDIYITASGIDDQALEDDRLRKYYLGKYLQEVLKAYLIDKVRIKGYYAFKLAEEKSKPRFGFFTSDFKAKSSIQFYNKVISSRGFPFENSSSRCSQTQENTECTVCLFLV
Briefly: AlphaScreen competition binding assay (inhibition of β-Klotho binding to biotinylated FGF19 or FGF21). To be noted: Suppl Fig S6A, 20 nM β-Klotho ECD 6×His, 40 nM biotinylated human FGF21, d.n.c. = did not converge. On the procedure: FGF19 and FGF21 C-terminal WT and mutant peptides were custom synthesized and purified (>95% purity) (LifeTein LLC, South Plainfield, NJ). Binding of FGF19 and FGF21 peptides to β-Klotho was assessed using an AlphaScreen® assay. Briefly, 20 nM of β-Klotho ECD 6 × His, varying amounts of FGF19 and 21 peptides, and 40 nM of biotinylated human FGF19 or FGF21 protein were prepared in AlphaLISA universal buffer (PerkinElmer) and added to individual wells in 384-well white opaque plates (Greiner Bio-One). Subsequently, streptavidin donor beads and nickel chelate (Ni-NTA) acceptor beads (AlphaScreen Histidine detection kit; PerkinElmer) were diluted to 40 µg/mL and added to the plates. Total reaction volume was 8 µL. Plates were incubated for 3 hours at room temperature protected from light and read on the EnVision Multilabel Plate Reader (PerkinElmer) according to the manufacturer’s instructions. Assays were performed in triplicate. IC50 values were determined from a three-parameter logistic regression model with the least squares fit using GraphPad Prism version 7.
A general note: In Alpha technology, singlet oxygen from a donor bead excites a nearby acceptor bead.

Test [2] deals with β-Klotho/FGFR complex. Briefly: Elk1-luciferase reporter assay in HEK293T reporter cells transiently transfected with full-length WT β-Klotho. Type of test: cell-based, human. The following applies: 6 h treatment, mean ± SD of three independent experiments, read-out: EC50, stimulation of Elk1-luciferase reporter activity (KLB WT). The method, then: (§1) To measure the signaling activity of β-Klotho mutants, ELK luciferase assay was performed in HEK293T cells that were stably transfected with reporter constructs containing 5 × UAS upstream of luciferase and Gal4 DNA-binding domain fused to ELK1. Briefly, HEK293T reporter cells were maintained in DMEM supplemented with 10% (v/v) FBS (Gibco) and 2 mM GlutaMax (Gibco) in a 37 °C incubator with 5% CO2. Cells were plated on 96-well plates in growth medium and incubated overnight. The next day, cells were transfected with expression vectors encoding full-length β-Klotho WT or mutants using the Lipofectamine 2000 transfection reagent (Invitrogen) according to the manufacturer’s protocol. Cells were serum-starved in DMEM supplemented with 5% (v/v) FBS (Gibco) and 2 mM GlutaMax (Gibco) overnight the day after transfection and treated with FGF21 for 6 hours at 37 °C with 5% CO2, after which the cells were lysed in Bright-Glo luciferase reagent (Promega). Luciferase activity was measured in relative luminescence units on the EnVision Multilabel Plate Reader (PerkinElmer) according to the manufacturer’s instructions. All assays were performed in duplicates. EC50 values were determined from a three-parameter logistic regression model with the least squares fit using GraphPad Prism version 7.
Background: In a reporter assay the amount or activity of a reporter protein is the signal.

Test [3] has as its system FGFR (expressed endogenously in HEK293T reporter cells). Put plainly: Elk1-luciferase reporter assay in HEK293T reporter cells without β-Klotho (no KLB). It counts as cell-based, human. To be noted: d.n.c = did not converge. The method, then: as §1, with “The next day, cells were transfected with expression vectors encoding full-length β-Klotho WT or mutants using the Lipofectamine 2000 transfection reagent (Invitrogen) according to the manufacturer’s protocol.” left out

With PQPPDVGSSDPLSMVGPSQGASPSYAS [203R-A], in test [1] (read-out: IC50, competition with FGF21 (FGF21 C-terminal peptides)), the IC50 turned out to be 7.3 nM.

Turning to PQPPDVGSSDALSMVGPSQGRSPSYAS [193P-A], the “IC50, competition with FGF21 (FGF21 C-terminal peptides)” value in test [1] was “d.n.c”.

Regarding PQPPDAGSSDPLSMVGPSQGRSPSYAS [188V-A], the “IC50, competition with FGF21 (FGF21 C-terminal peptides)” value in test [1] is “d.n.c”.

For the substance “FGF19: mature human FGF19 protein, endocrine fibroblast growth factor”, the EC50 in test [2] (Fig 3D) was found to be 2.88 ± 1.43 nM. Besides, the “EC50, stimulation of Elk1-luciferase reporter activity (no KLB)” value in test [3] (Fig 3D) is reported as “d.n.c”.

Turning to “FGF1: a prototypical paracrine FGF [reference compound]”, the concentration giving a half-maximal response (EC50) was 0.038 ± 0.024 nM in test [2] (Fig 3A) and 0.049 ± 0.037 nM in test [3] (Fig 3A, mean ± SD of three independent experiments, read-out: EC50, stimulation of Elk1-luciferase reporter activity (no KLB)).
